From patent US12338262B2 (Forward Therapeutics, Inc., priority 2022, dated 2025)

What follows are compounds tested against TNF-α (Homo sapiens, UniProt P01375) (assay: TNF-α Induced HEK Blue Cellular Assay). Details: HEK Blue TNFα reporter cells, TNF-α 100 pg/ml, 24 hrs at 37° C., secreted alkaline phosphatase (QUANTI-Blue, 620 nm).
Assay type: cell-based
Protocol: TNF-α Induced HEK Bluet Cellular Assay
Test articles were diluted in DMSO and serially diluted into 384 well assay plate (Corning 3765), at final concentrations ranging from […] to 0.5 nM. HEK Blue™ TNFα reporter cells were added at a final density of 10,000 cell per well in assay media [DMEM (Gibco, cat #21063-029), 10% fetal bovine serum (ExcelBio, cat #FND500), 1% Penicillin-Streptomycin (Solarbio, cat #P1400-100]. TNF-α (R&D 210-TA-020/CF) was then added to the assay plate at a final concentration of 100 pg/ml. This plate was then incubated for 24 hrs at 37° C. and 5% CO2. Secreted alkaline phosphatase expression was then measured using QUANTI-Blue™ (Invivogen), according to manufacturer instructions and read on an Envision microplate reader at 620 nm.
Inhibition data for test compound over a range of concentration was plotted as percentage inhibition of the test compound (100%=maximum inhibition). IC50 values were determined after correcting for background [(sample read-mean of low control)/(mean of high control-mean of low control)] where by the low control is DMSO without stimulation and high control is DMSO with stimulation. The IC50 is defined as the concentration of test compound which produces 50% inhibition and was quantified using the 4 parameter logistic equation to fit the data.

TNF-α, sequence (P01375 77-233 limits assumed): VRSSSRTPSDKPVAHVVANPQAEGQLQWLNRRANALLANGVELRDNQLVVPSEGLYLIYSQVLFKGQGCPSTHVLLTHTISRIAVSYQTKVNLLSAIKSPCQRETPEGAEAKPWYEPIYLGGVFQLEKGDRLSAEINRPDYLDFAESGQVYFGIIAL

Q: Which IC50 does the source give for `Cc1nc2ccc(-c3ccc(P(C)(C)=O)nc3)nc2c(N[C@H](C)c2cc(C#N)ccc2F)c1Cl` [Example 40, 3-[(1R)-1-({3-chloro-6-[6-(dimethylphosphoryl)pyridin-3-yl]-2-methyl-1,5-naphthyridin-4-yl}amino)ethyl]-4-fluorobenzonitrile] here?
A: ≤ 0.1 µM

Q: How did the IC50 turn out when `CC[C@@H](Nc1c(Cl)c(C)nc2cc(F)c(-c3ccc(P(C)(C)=O)nc3)nc12)c1ccccc1F` [Example 22, 3-chloro-6-[6-(dimethylphosphoryl)pyridin-3-yl]-7-fluoro-N-[(1R)-1-(2-fluorophenyl)propyl]-2-methyl-1,5-naphthyridin-4-amine] was run?
A: ≤ 0.1 µM

Q: How did the IC50 turn out when `Cc1nc2cc(F)c(-c3ccc(P(C)(C)=O)nc3)nc2c(N[C@@H](C)c2cc(F)ccc2F)c1Cl` [Example 51, 3-chloro-N-[(1S)-1-(2,5-difluorophenyl)ethyl]-6-[6-(dimethylphosphoryl)pyridin-3-yl]-7-fluoro-2-methyl-1,5-naphthyridin-4-amine] was run?
A: ≤ 0.1 µM

Q: With `CC[C@@H](Nc1c(Cl)c(C)nc2cc(F)c(-c3cnc(P(C)(C)=O)nc3)cc12)c1cccc(F)c1F` [Example 114, (R)-(5-(3-chloro-4-((1-(2,3-difluorophenyl)propyl)amino)-7-fluoro-2-methylquinolin-6-yl)pyrimidin-2-yl)dimethylphosphine oxide] as the compound, how does the IC50 read?
A: ≤ 0.1 µM

Q: For `CC[C@@H](Nc1c(Cl)c(C)nc2cc(F)c(-c3cnc(OCP(C)(C)=O)nc3)nc12)c1cccc(F)c1F` [Example 125, 3-chloro-N-[(1R)-1-(2,3-difluorophenyl)propyl]-6-{2-[(dimethylphosphoryl)methoxy]pyrimidin-5-yl}-7-fluoro-2-methyl-1,5-naphthyridin-4-amine], which IC50 is on record?
A: ≤ 1 µM

Q: With `Cc1nc2cc(F)c(-c3ccc(OCP(C)(C)=O)nc3)nc2c(N[C@H](C)c2cc(C#N)ccc2F)c1Cl` [Example 33, 3-[(1R)-1-[(3-chloro-6-{6-[(dimethylphosphoryl)methoxy]pyridin-3-yl}-7-fluoro-2-methyl-1,5-naphthyridin-4-yl)amino]ethyl]-4-fluorobenzonitrile] as the compound, how does the IC50 read?
A: ≤ 0.1 µM

Q: For `Cc1cc(P(C)(C)=O)ncc1-c1nc2c(N[C@H](C)c3ccccc3F)c(Cl)c(C)nc2cc1F` [Example 62, 3-chloro-6-[6-(dimethylphosphoryl)-4-methylpyridin-3-yl]-7-fluoro-N-[(1R)-1-(2-fluorophenyl)ethyl]-2-methyl-1,5-naphthyridin-4-amine], which IC50 is on record?
A: ≤ 1 µM

Q: `Cc1nc2cc(F)c(-c3ccc(P(C)(C)=O)nc3)cc2c(N[C@H](C)c2cc(F)cc(F)c2)c1Cl` [Example 112, 3-chloro-N-[(1R)-1-(3,5-difluorophenyl)ethyl]-6-[6-(dimethylphosphoryl)pyridin-3-yl]-7-fluoro-2-methylquinolin-4-amine] was tested. Which IC50 did it give?
A: ≤ 1 µM

Q: How did the IC50 turn out when `Cc1nc2cc(F)c(-c3ccc(P(C)(C)=O)nc3)nc2c(N[C@H](C)c2c(F)cccc2F)c1Cl` [Example 52, 3-chloro-N-[(1R)-1-(2,6-difluorophenyl)ethyl]-6-[6-(dimethylphosphoryl)pyridin-3-yl]-7-fluoro-2-methyl-1,5-naphthyridin-4-amine] was run?
A: ≤ 1 µM

Q: `CC[C@H](Nc1c(Cl)c(C)nc2cc(F)c(-c3cnc(P(C)(C)=O)nc3)nc12)c1cccc(F)c1F` [Example 127, 3-chloro-N-[(1S)-1-(2,3-difluorophenyl)propyl]-6-[2-(dimethylphosphoryl)pyrimidin-5-yl]-7-fluoro-2-methyl-1,5-naphthyridin-4-amine] was tested. Which IC50 did it give?
A: ≤ 1 µM

Q: `Cc1nc2ccc(-c3cnc(P(C)(C)=O)nc3)cc2c(N[C@H](C)c2cc(C#N)ccc2F)c1Cl` [Example 6, 3-[(1R)-1-({3-chloro-6-[2-(dimethylphosphoryl)pyrimidin-5-yl]-2-methylquinolin-4-yl}amino)ethyl]-4-fluorobenzonitrile] was tested. Which IC50 did it give?
A: ≤ 1 µM

Q: With `Cc1nc2cc(F)c(-c3ccc(P(C)(C)=O)nc3)nc2c(N[C@H](C)c2cccc(F)c2)c1Cl` [Example 86, 3-chloro-6-[6-(dimethylphosphoryl)pyridin-3-yl]-7-fluoro-N-[(1R)-1-(3-fluorophenyl)ethyl]-2-methyl-1,5-naphthyridin-4-amine] as the compound, how does the IC50 read?
A: ≤ 0.1 µM

Q: With `Cc1nc2cc(F)c(-c3ccc(P(C)(C)=O)nc3)nc2c(N[C@H](C)c2cc(C#N)ccc2F)c1C` [Example 119, 3-[(1R)-1-({6-[6-(dimethylphosphoryl)pyridin-3-yl]-7-fluoro-2,3-dimethyl-1,5-naphthyridin-4-yl}amino)ethyl]-4-fluorobenzonitrile] as the compound, how does the IC50 read?
A: ≤ 1 µM

Q: With `CC[C@@H](Nc1c(F)c(C)nc2cc(F)c(-c3ccc(P(C)(C)=O)nc3)nc12)c1ccccc1F` [Example 77, 6-[6-(dimethylphosphoryl)pyridin-3-yl]-3,7-difluoro-N-[(1R)-1-(2-fluorophenyl)propyl]-2-methyl-1,5-naphthyridin-4-amine] as the compound, how does the IC50 read?
A: ≤ 1 µM

Q: For `Cc1nc2cc(F)c(-c3ccc(P(C)(C)=O)nc3)nc2c(N[C@H](C)c2c(F)ccc(F)c2F)c1Cl` [Example 89, 3-chloro-6-[6-(dimethylphosphoryl)pyridin-3-yl]-7-fluoro-2-methyl-N-[(1R)-1-(2,3,6-trifluorophenyl)ethyl]-1,5-naphthyridin-4-amine], which IC50 is on record?
A: 10 to 30 µM

Q: How did the IC50 turn out when `Cc1nc2cc(F)c(-c3ccc(P(C)(C)=O)nc3)nc2c(N[C@H](C)c2ccc(F)cc2F)c1Cl` [Example 88, 3-chloro-N-[(1R)-1-(2,4-difluorophenyl)ethyl]-6-[6-(dimethylphosphoryl)pyridin-3-yl]-7-fluoro-2-methyl-1,5-naphthyridin-4-amine] was run?
A: 10 to 30 µM

Q: `Cc1nc2cc(F)c(-c3cnc(P(C)(C)=O)nc3)nc2c(N[C@H](c2cc(C#N)ccc2F)C(F)F)c1Cl` [Example 38, (R)-3-(1-((3-chloro-6-(2-(dimethylphosphoryl)pyrimidin-5-yl)-7-fluoro-2-methyl-1,5-naphthyridin-4-yl)amino)-2,2-difluoroethyl)-4-fluorobenzonitrile] was tested. Which IC50 did it give?
A: ≤ 1 µM

Q: `Cc1nc2cc(F)c(-c3ccc(P(C)(C)=O)nc3)nc2c(N[C@@H](CO)c2ccccc2F)c1Cl` [Example 60, (2R)-2-({3-chloro-6-[6-(dimethylphosphoryl)pyridin-3-yl]-7-fluoro-2-methyl-1,5-naphthyridin-4-yl}amino)-2-(2-fluorophenyl)ethanol] was tested. Which IC50 did it give?
A: 10 to 30 µM

Q: Which IC50 does the source give for `CCC(Nc1c(Cl)c(C)nc2cc(F)c(-c3ccc(P(C)(C)=O)nc3)nc12)c1cccnc1` (stereo not drawn) [Example 82, 3-chloro-6-[6-(dimethylphosphoryl)pyridin-3-yl]-7-fluoro-2-methyl-N-[1-(pyridin-3-yl)propyl]-1,5-naphthyridin-4-amine] here?
A: ≤ 0.1 µM

Q: How did the IC50 turn out when `CC[C@@H](Nc1c(Cl)c(C)nc2cc(F)c(-c3ccc(P(C)(C)=O)nc3)cc12)c1ncccc1F` [Example 102, 3-chloro-6-[6-(dimethylphosphoryl)pyridin-3-yl]-7-fluoro-N-[(1R)-1-(3-fluoropyridin-2-yl)propyl]-2-methylquinolin-4-amine] was run?
A: ≤ 1 µM

Q: `Cc1nc2cc(F)c(-c3ccc(P(C)(C)=O)nc3)nc2c(N[C@H](C)c2cc(F)ccc2F)c1Cl` [Example 53, 3-chloro-N-[(1R)-1-(2,5-difluorophenyl)ethyl]-6-[6-(dimethylphosphoryl)pyridin-3-yl]-7-fluoro-2-methyl-1,5-naphthyridin-4-amine] was tested. Which IC50 did it give?
A: ≤ 1 µM
